Where two headings read alike, the source gives them in different places.
Assay: Plasma concentration versus time of Compound I and metabolite Compound III in patients dosed QD or BID with Form B of Compound II plus fulvestrant
Assay type: in vivo, human
Conditions: human, plasma, oral, read-out: Compound I Concentration
From the text: Patients were enrolled into 1 of 2 parallel, independently operating, dose-escalation dosing cohorts with Form B of Compound II administered continuously either once daily (QD) or twice daily (BID) with food with fixed-dose fulvestrant (intramuscularly every 14 days for the first three injections and then every 28 days). Pre- or perimenopausal patients also received goserelin for the duration of study treatment. A […] agonist was started at least 28 days before the first dose of Form B, and those patients who were taking another LHRH agonist were switched to goserelin on Day 1. Patients were split into […] cohorts providing once a day (QD) dosing of 200 mg, 300 mg, 400 mg, 500 mg, or 650 mg of Form B, or twice a day (BID) dosing of 100 mg, 150 mg, or 200 mg of Form B. The second dose in BID cohorts was not administered in the evening until at least 12 hours after the initial morning dose of Form B. The dosing cohorts for Form B of Compound II are provided in Table 1.
Blood samples were collected at the following time points relative to the morning dose of Form B at Day 1 and at Day 29: pre-dose (0 hour) and 1, 2, 3, 4, 6, 8, 10, 12 (prior to the evening dose in the BID cohorts), and 24 (prior to the next day's morning dose) hours after dosing. A 5-minute time window was allowed for samples collected between the predose and 3 hours after Form B dosing. A 15-minute window was allowed for samples collected between 4 to 12 hours after Form B dosing. A 1-hour window was allowed for the sample collected 24 hours after Form B dosing. Blood samples for Compound I PK trough levels were collected pre-dose at Day 8, Day 15, and Day 22 prior to the morning administration of Compound I. Plasma concentrations of Compound I and its metabolite, Compound III, were measured using validated methods.
Analysis of plasma concentration versus time data for calculation of standard pharmacokinetic (PK) parameters following oral administration was conducted using Phoenix WinNonlin version 6.3 using actual blood sampling times.

CC(C)N1CCN(c2ccc(Nc3ncc4cc5n(c4n3)C3(CCCCC3)CNC5=O)nc2)CC1 [Compound I, 2′-((5-(4-isopropylpiperazin-1-yl)pyridin-2-yl)amino)-7′,8′-dihydro-6′H-spiro[cyclohexane-1,9′-pyrazino[1′,2′:1,5]pyrrolo[2,3-d]pyrimidin]-6′-one]
concentration at 1 h (300 mg, 300 mg QD of Form B, Day 29, 1.0 h, Median): 15.4 ng/mL | concentration at 2 h (300 mg, 300 mg QD of Form B, Day 29, 2.0 h, Mean): 22.6 ng/mL | concentration at 2 h (300 mg, 300 mg QD of Form B, Day 29, 2.0 h, Median): 19.5 ng/mL | concentration at 3 h (300 mg, 300 mg QD of Form B, Day 29, 3.0 h, Mean): 31 ng/mL | concentration at 3 h (300 mg, 300 mg QD of Form B, Day 29, 3.0 h, Median): 26.3 ng/mL | concentration at 4 h (300 mg, 300 mg QD of Form B, Day 29, 4.0 h, Mean): 44.9 ng/mL | concentration at 4 h (300 mg, 300 mg QD of Form B, Day 29, 4.0 h, Median): 34.2 ng/mL | concentration at 6 h (300 mg, 300 mg QD of Form B, Day 29, 6.0 h, Mean): 35.9 ng/mL | concentration at 6 h (300 mg, 300 mg QD of Form B, Day 29, 6.0 h, Median): 39.2 ng/mL | concentration at 8 h (300 mg, 300 mg QD of Form B, Day 29, 8.0 h, Mean): 31.5 ng/mL | concentration at 8 h (300 mg, 300 mg QD of Form B, Day 29, 8.0 h, Median): 33.3 ng/mL | concentration at 10 h (300 mg, 300 mg QD of Form B, Day 29, 10.0 h, Mean): 25.6 ng/mL | concentration at 10 h (300 mg, 300 mg QD of Form B, Day 29, 10.0 h, Median): 18.9 ng/mL | concentration at 12 h (300 mg, 300 mg QD of Form B, Day 29, 12.0 h, Mean): 26.4 ng/mL | concentration at 12 h (300 mg, 300 mg QD of Form B, Day 29, 12.0 h, Median): 20.5 ng/mL | concentration at 24 h (300 mg, 300 mg QD of Form B, Day 29, […], Mean): 14.4 ng/mL | concentration at 24 h (300 mg, 300 mg QD of Form B, Day 29, […], Median): 10.9 ng/mL | concentration at 0 h (400 mg, 400 mg QD of Form B, Day 1, 0.0 h, Mean): 0 ng/mL | concentration at 0 h (400 mg, 400 mg QD of Form B, Day 1, 0.0 h, Median): 0 ng/mL | concentration at 1 h (400 mg, 400 mg QD of Form B, Day 1, 1.0 h, Mean): 5.32 ng/mL | concentration at 1 h (400 mg, 400 mg QD of Form B, Day 1, 1.0 h, Median): 2.26 ng/mL | concentration at 2 h (400 mg, 400 mg QD of Form B, Day 1, 2.0 h, Mean): 5.67 ng/mL | concentration at 2 h (400 mg, 400 mg QD of Form B, Day 1, 2.0 h, Median): 4.83 ng/mL | concentration at 3 h (400 mg, 400 mg QD of Form B, Day 1, 3.0 h, Mean): 9.21 ng/mL | concentration at 3 h (400 mg, 400 mg QD of Form B, Day 1, 3.0 h, Median): 9.38 ng/mL | concentration at 4 h (400 mg, 400 mg QD of Form B, Day 1, 4.0 h, Mean): 14 ng/mL | concentration at 4 h (400 mg, 400 mg QD of Form B, Day 1, 4.0 h, Median): 13.1 ng/mL | concentration at 6 h (400 mg, 400 mg QD of Form B, Day 1, 6.0 h, Mean): 20.1 ng/mL | concentration at 6 h (400 mg, 400 mg QD of Form B, Day 1, 6.0 h, Median): 21.6 ng/mL | concentration at 8 h (400 mg, 400 mg QD of Form B, Day 1, 8.0 h, Mean): 15.5 ng/mL | concentration at 8 h (400 mg, 400 mg QD of Form B, Day 1, 8.0 h, Median): 16 ng/mL | concentration at 10 h (400 mg, 400 mg QD of Form B, Day 1, 10.0 h, Mean): 10.6 ng/mL | concentration at 10 h (400 mg, 400 mg QD of Form B, Day 1, 10.0 h, Median): 9.56 ng/mL | concentration at 12 h (400 mg, 400 mg QD of Form B, Day 1, 12.0 h, Mean): 7.69 ng/mL | concentration at 12 h (400 mg, 400 mg QD of Form B, Day 1, 12.0 h, Median): 8.13 ng/mL | concentration at 24 h (400 mg, 400 mg QD of Form B, Day 1, […], Mean): 3.27 ng/mL | concentration at 24 h (400 mg, 400 mg QD of Form B, Day 1, […], Median): 3.31 ng/mL | concentration at 0 h (400 mg, 400 mg QD of Form B, Day 29, 0.0 h, Mean): 6.8 ng/mL | concentration at 0 h (400 mg, 400 mg QD of Form B, Day 29, 0.0 h, Median): 7.52 ng/mL | concentration at 1 h (400 mg, 400 mg QD of Form B, Day 29, 1.0 h, Mean): 8.07 ng/mL | concentration at 1 h (400 mg, 400 mg QD of Form B, Day 29, 1.0 h, Median): 9.88 ng/mL | concentration at 2 h (400 mg, 400 mg QD of Form B, Day 29, 2.0 h, Mean): 11.1 ng/mL | concentration at 2 h (400 mg, 400 mg QD of Form B, Day 29, 2.0 h, Median): 13.4 ng/mL | concentration at 3 h (400 mg, 400 mg QD of Form B, Day 29, 3.0 h, Mean): 14.2 ng/mL | concentration at 3 h (400 mg, 400 mg QD of Form B, Day 29, 3.0 h, Median): 17.2 ng/mL | concentration at 4 h (400 mg, 400 mg QD of Form B, Day 29, 4.0 h, Mean): 17 ng/mL | concentration at 4 h (400 mg, 400 mg QD of Form B, Day 29, 4.0 h, Median): 21.2 ng/mL | concentration at 6 h (400 mg, 400 mg QD of Form B, Day 29, 6.0 h, Mean): 18.9 ng/mL | concentration at 6 h (400 mg, 400 mg QD of Form B, Day 29, 6.0 h, Median): 23.2 ng/mL | concentration at 8 h (400 mg, 400 mg QD of Form B, Day 29, 8.0 h, Mean): 17 ng/mL | concentration at 8 h (400 mg, 400 mg QD of Form B, Day 29, 8.0 h, Median): 20.5 ng/mL | concentration at 10 h (400 mg, 400 mg QD of Form B, Day 29, 10.0 h, Mean): 14.2 ng/mL | concentration at 10 h (400 mg, 400 mg QD of Form B, Day 29, 10.0 h, Median): 17.1 ng/mL | concentration at 12 h (400 mg, 400 mg QD of Form B, Day 29, 12.0 h, Mean): 11.8 ng/mL | concentration at 12 h (400 mg, 400 mg QD of Form B, Day 29, 12.0 h, Median): 13.5 ng/mL | concentration at 24 h (400 mg, 400 mg QD of Form B, Day 29, […], Mean): 6.26 ng/mL | concentration at 24 h (400 mg, 400 mg QD of Form B, Day 29, […], Median): 7.04 ng/mL | concentration at 0 h (500 mg, 500 mg QD of Form B, Day 1, 0.0 h, Mean): 0 ng/mL
